Here are results for 21 molecules from patent US20250275959A1, “COMPOUNDS AND METHODS OF THEIR USE” (LEXICON PHARMACEUTICALS, INC., priority 2024, published 2025).

The target in experiment [1] is T1, hACSL5 (Homo sapiens (Human), UniProt Q9ULC5). In words: Cell-based assay (CBA) with B12FA in hACSL5-transfected Expi293F / FlpIn TRex293 cells. To be noted: hACSL5-expressing cells. The source says: To assess the cell penetration and cellular activity of the compounds, a cell-based assay (CBA) was used to detect compound potency in living cells. The assay utilized the fluorescent fatty acid analogue B12FA, a boron-dipyrromethene (BODIPY™) labelled C12 fatty acid that can be incorporated into glycerophosphocholine in the cytoplasmic oil droplets of live cells. A concentration-dependent, red-shifted fluorescence can be induced by the formation of BODIPY™ excimers in the oil droplets.
Expi293F cells transfected with full length hACSL5 plasmid were selected using 1 mg/mL G418 culture medium and clones were selected by in vitro whole cell lysate (WCL) assay. The cell passage number used in the Expi293 CBA assay could not be used beyond 10 passages due to a decrease in hACSL5 expression. Therefore, a CBA using FlpIn TRex293 cells for inducible expression of hACSL5 was also established.
FlpIn TRex293 cells transfected with hACSL5 plasmid were selected in culture medium containing 15 µg/ml Blasticidin and 150 µg/ml Hygromycin. For cell-based assays, stable transfected hACSL5 cells were seeded onto a 96-well plate at 30-50k/well and incubated overnight. For the inducible system, […] tetracycline (or doxycycline) was added to culture medium of FlpIn TRex293 hACSL5 cells on the day before the assay to induce expression of hACSL5. The next day, growth media was replaced with culture medium without FBS and glucose (DMEM glucose (-), ThermoFisher) and cells were incubated for an hour before treating cells with serial diluted compounds containing 20 µM B12FA (ThermoFisher) for another 3 hours in the above medium. Cells were then fixed in 4% formaldehyde for 10 minutes and washed twice with PBS. The plate was read using the Cytation 5 imaging system with an excitation wavelength of 485 nm and observed emissions at 630 nm and 520 nm. The percentage of inhibition was calculated as: […]
wherein A is the ratio of emission intensities at 630 nm/520 nm in the absence of inhibitor (maximum ratio); B is the ratio of the intensities at those wavelengths in the presence of […] of the test compound or non-induced cells (minimum ratio); and X is the ratio of the intensities at a given compound concentration.
Concentration-response titration points for each compound tested were filled to the Hill equation yielding concentrations of half maximal inhibition […] and maximal inhibition values.
Target sequence in this assay (Q9ULC5 whole entry): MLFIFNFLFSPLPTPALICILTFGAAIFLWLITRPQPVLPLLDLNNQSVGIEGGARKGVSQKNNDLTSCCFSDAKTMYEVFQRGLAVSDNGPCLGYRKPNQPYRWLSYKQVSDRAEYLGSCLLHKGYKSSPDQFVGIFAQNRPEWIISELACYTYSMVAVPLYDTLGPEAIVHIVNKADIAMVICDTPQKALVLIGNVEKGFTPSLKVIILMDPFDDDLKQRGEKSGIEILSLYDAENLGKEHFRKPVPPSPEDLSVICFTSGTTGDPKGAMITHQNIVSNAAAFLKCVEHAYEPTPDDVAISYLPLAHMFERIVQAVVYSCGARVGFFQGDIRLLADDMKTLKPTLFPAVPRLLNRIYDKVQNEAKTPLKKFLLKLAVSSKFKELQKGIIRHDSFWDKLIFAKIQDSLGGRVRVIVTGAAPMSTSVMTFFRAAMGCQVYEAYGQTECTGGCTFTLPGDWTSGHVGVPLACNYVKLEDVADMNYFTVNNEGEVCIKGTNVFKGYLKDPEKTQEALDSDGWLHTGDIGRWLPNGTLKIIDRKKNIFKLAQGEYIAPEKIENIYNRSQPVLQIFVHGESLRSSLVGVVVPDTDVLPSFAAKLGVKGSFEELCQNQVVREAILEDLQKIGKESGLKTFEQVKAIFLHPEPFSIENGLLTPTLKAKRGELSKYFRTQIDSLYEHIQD

In experiment [2] the target is T1, hACSL5. In words: Human ACSL5 coupled enzyme Amplex Red assay. To be noted: read-out: hACSL5 IC50. It counts as biochemical. In a few lines:
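C-terminally His-tagged ACSL5 (33-683) from sf9 cells, 20 nM, was preincubated with compound in MOPS-NaOH pH 7.6 with MgCl2, peroxidase and acyl-CoA oxidase. Reactions were started with 25 μM oleate, 30 μM CoA, 1 mM ATP and 50 μM Amplex Red; fluorescence (535/590 nm) after 10 minutes at 25° C. was fitted to the Hill equation for IC50 and maximal inhibition.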
Target sequence in this assay (Q9ULC5 33-683): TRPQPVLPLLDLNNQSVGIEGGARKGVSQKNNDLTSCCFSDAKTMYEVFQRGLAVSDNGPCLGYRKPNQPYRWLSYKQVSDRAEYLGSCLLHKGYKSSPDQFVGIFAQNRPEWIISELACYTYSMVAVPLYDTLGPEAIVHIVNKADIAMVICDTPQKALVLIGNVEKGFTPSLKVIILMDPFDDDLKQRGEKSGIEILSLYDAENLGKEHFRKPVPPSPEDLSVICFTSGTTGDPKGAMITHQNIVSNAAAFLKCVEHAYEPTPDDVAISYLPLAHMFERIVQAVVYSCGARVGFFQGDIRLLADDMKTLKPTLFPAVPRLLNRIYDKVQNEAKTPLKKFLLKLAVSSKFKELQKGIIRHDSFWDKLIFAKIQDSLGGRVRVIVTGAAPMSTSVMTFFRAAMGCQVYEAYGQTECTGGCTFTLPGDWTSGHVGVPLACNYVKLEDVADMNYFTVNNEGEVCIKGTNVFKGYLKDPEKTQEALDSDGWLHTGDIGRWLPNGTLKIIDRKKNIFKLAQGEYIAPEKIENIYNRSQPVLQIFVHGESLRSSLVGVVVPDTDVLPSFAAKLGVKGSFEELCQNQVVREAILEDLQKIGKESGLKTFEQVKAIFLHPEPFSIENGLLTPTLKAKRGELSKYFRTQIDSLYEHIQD

As usually defined, the IC50 is the point on the concentration scale where inhibition reaches its midpoint. For the molecule `CC[C@@H](Oc1ccc(C(=O)NS(=O)(=O)N2CCC(OC3CCN(C)CC3)CC2)c(F)c1F)c1ccc(Oc2ccccn2)cn1` [(R)-2,3-difluoro-N-((4-((1-methylpiperidin-4-yl)oxy)piperidin-1-yl)sulfonyl)-4-(1-(5-(pyridin-2-yloxy)pyridin-2-yl)propoxy)benzamide], the IC50 against hACSL5 [1] and on hACSL5 [2] was less than 100 nM each time.

For the molecule `CC[C@@H](Oc1ccc(C(=O)NS(=O)(=O)N2CCN(C)CC2)c(F)c1F)c1cc(Oc2ccccn2)ccn1` [(R)-2,3-difluoro-N-((4-methylpiperazin-1-yl)sulfonyl)-4-(1-(4-(pyridin-2-yloxy)pyridin-2-yl)propoxy)benzamide], the IC50 was 100 to 500 nM at hACSL5 [1] and less than 100 nM on hACSL5 [2].

Turning to `CC[C@@H](Oc1ccc(C(=O)NS(=O)(=O)N2CCC(OC3CCN(C)CC3)CC2)c(F)c1F)c1cccc(OCC2CC2)c1` [(R)-4-(1-(3-(cyclopropylmethoxy)phenyl)propoxy)-2,3-difluoro-N-((4-((1-methylpiperidin-4-yl)oxy)piperidin-1-yl)sulfonyl)benzamide], the concentration for half-maximal inhibition (IC50) against hACSL5 [1] and on hACSL5 [2] was 100 to 500 nM each time.

As for `CC[C@@H](Oc1ccc(C(=O)NS(=O)(=O)c2ccc(OC3CCN(C)CC3)cc2)c(F)c1F)c1cc(OCC2CC2)ccn1` [(R)-4-(1-(4-(cyclopropylmethoxy)pyridin-2-yl)propoxy)-2,3-difluoro-N-((4-((1-methylpiperidin-4-yl)oxy)phenyl)sulfonyl)benzamide], the 50% inhibitory concentration (IC50) at hACSL5 [1] and on hACSL5 [2] was 100 to 500 nM in each case.

Take `CC[C@@H](Oc1ccc(C(=O)NS(=O)(=O)N2CCC(OC3CCN(C)CC3)CC2)c(F)c1F)c1cc(OCC2CC2)ccn1` [(R)-4-(1-(4-(cyclopropylmethoxy)pyridin-2-yl)propoxy)-2,3-difluoro-N-((4-((1-methylpiperidin-4-yl)oxy)piperidin-1-yl)sulfonyl)benzamide]: the IC50 at hACSL5 [1] and on hACSL5 [2] was 100 to 500 nM each time.

On to `CC[C@@H](Oc1ccc(C(=O)NS(=O)(=O)N2CCN(C)CC2)c(F)c1F)c1cc(OCC2CC2)ccn1` [(R)-4-(1-(4-(cyclopropylmethoxy)pyridin-2-yl)propoxy)-2,3-difluoro-N-((4-methylpiperazin-1-yl)sulfonyl)benzamide], for which the IC50 against hACSL5 [1] and on hACSL5 [2] was 100 to 500 nM throughout.

For the molecule `CC[C@@H](Oc1ccc(C(=O)NS(=O)(=O)c2ccc(OCCN(C)C)cc2)c(F)c1F)c1cc(OCC2CC2)ccn1` [(R)-4-(1-(4-(cyclopropylmethoxy)pyridin-2-yl)propoxy)-N-((4-(2-(dimethylamino)ethoxy)phenyl)sulfonyl)-2,3-difluorobenzamide], the IC50 against hACSL5 [1] and on hACSL5 [2] was 100 to 500 nM each time.

As to `CC[C@@H](Oc1ccc(C(=O)NS(=O)(=O)C2CCN(C)CC2)c(F)c1F)c1ccc(OCC2CC2)cn1` [(R)-4-(1-(5-(cyclopropylmethoxy)pyridin-2-yl)propoxy)-2,3-difluoro-N-((1-methylpiperidin-4-yl)sulfonyl)benzamide], the figures for the IC50 at hACSL5 [1] and on hACSL5 [2] were greater than 500 nM and 100 to 500 nM, respectively.

Take `CC[C@@H](Oc1ccc(C(=O)NS(=O)(=O)N2CCN(C)CC2(C)C)c(F)c1F)c1ccc(OCC2CC2)cn1` [(R)-4-(1-(5-(cyclopropylmethoxy)pyridin-2-yl)propoxy)-2,3-difluoro-N-((2,2,4-trimethylpiperazin-1-yl)sulfonyl)benzamide]: the IC50 at hACSL5 [1] and on hACSL5 [2] was less than 100 nM throughout.

`CC[C@@H](Oc1ccc(C(=O)NS(=O)(=O)c2cnc(OC3CCN(C)CC3)nc2)c(F)c1F)c1ccc(OCC2CC2)cn1` [(R)-4-(1-(5-(cyclopropylmethoxy)pyridin-2-yl)propoxy)-2,3-difluoro-N-((2-((1-methylpiperidin-4-yl)oxy)pyrimidin-5-yl)sulfonyl)benzamide]: the 50% inhibitory concentration (IC50) against hACSL5 [1] was greater than 500 nM; on hACSL5 [2], less than 100 nM.

`CC[C@@H](Oc1ccc(C(=O)NS(=O)(=O)N2CCN(C)C(C)(C)C2)c(F)c1F)c1ccc(OCC2CC2)cn1` [(R)-4-(1-(5-(cyclopropylmethoxy)pyridin-2-yl)propoxy)-2,3-difluoro-N-((3,3,4-trimethylpiperazin-1-yl)sulfonyl)benzamide]: the IC50 against hACSL5 [1] and on hACSL5 [2] was less than 100 nM each time.

On to `CC[C@@H](Oc1ccc(C(=O)NS(=O)(=O)c2ccc(OCCN3CCN(C)CC3)cc2)c(F)c1F)c1ccc(OCC2CC2)cn1` [(R)-4-(1-(5-(cyclopropylmethoxy)pyridin-2-yl)propoxy)-2,3-difluoro-N-((4-(2-(4-methylpiperazin-1-yl)ethoxy)phenyl)sulfonyl)benzamide], for which the IC50 against hACSL5 [1] was 100 to 500 nM; on hACSL5 [2] it was less than 100 nM.

In the case of `CC[C@@H](Oc1ccc(C(=O)NS(=O)(=O)c2ccc(OCCNC3COC3)cc2)c(F)c1F)c1ccc(OCC2CC2)cn1` [(R)-4-(1-(5-(cyclopropylmethoxy)pyridin-2-yl)propoxy)-2,3-difluoro-N-((4-(2-(oxetan-3-ylamino)ethoxy)phenyl)sulfonyl)benzamide], the IC50 against hACSL5 [1] was 100 to 500 nM; at hACSL5 [2] it was less than 100 nM.

Turning to `CC[C@@H](Oc1ccc(C(=O)NS(=O)(=O)c2ccc(OCCN3CCCCC3)cc2)c(F)c1F)c1ccc(OCC2CC2)cn1` [(R)-4-(1-(5-(cyclopropylmethoxy)pyridin-2-yl)propoxy)-2,3-difluoro-N-((4-(2-(piperidin-1-yl)ethoxy)phenyl)sulfonyl)benzamide], the IC50 on hACSL5 [1] and at hACSL5 [2] was less than 100 nM each time.

`CC[C@@H](Oc1ccc(C(=O)NS(=O)(=O)c2ccc(OCCN3CCCC3)cc2)c(F)c1F)c1ccc(OCC2CC2)cn1` [(R)-4-(1-(5-(cyclopropylmethoxy)pyridin-2-yl)propoxy)-2,3-difluoro-N-((4-(2-(pyrrolidin-1-yl)ethoxy)phenyl)sulfonyl)benzamide]: the figures for the 50% inhibitory concentration (IC50) on hACSL5 [1] and at hACSL5 [2] were 100 to 500 nM and less than 100 nM, respectively.

Turning to `CC[C@@H](Oc1ccc(C(=O)NS(=O)(=O)N2CCN(CC(C)(C)F)CC2)c(F)c1F)c1ccc(OCC2CC2)cn1` [(R)-4-(1-(5-(cyclopropylmethoxy)pyridin-2-yl)propoxy)-2,3-difluoro-N-((4-(2-fluoro-2-methylpropyl)piperazin-1-yl)sulfonyl)benzamide], the IC50 against hACSL5 [1] and on hACSL5 [2] was less than 100 nM throughout.

Consider `CC[C@@H](Oc1ccc(C(=O)NS(=O)(=O)N2CCN(CC(C)(C)O)CC2)c(F)c1F)c1ccc(OCC2CC2)cn1` [(R)-4-(1-(5-(cyclopropylmethoxy)pyridin-2-yl)propoxy)-2,3-difluoro-N-((4-(2-hydroxy-2-methylpropyl)piperazin-1-yl)sulfonyl)benzamide], for which the IC50 is 100 to 500 nM at hACSL5 [1] and less than 100 nM on hACSL5 [2].

`CC[C@@H](Oc1ccc(C(=O)NS(=O)(=O)N2CCN(CCOC)CC2)c(F)c1F)c1ccc(OCC2CC2)cn1` [(R)-4-(1-(5-(cyclopropylmethoxy)pyridin-2-yl)propoxy)-2,3-difluoro-N-((4-(2-methoxyethyl)piperazin-1-yl)sulfonyl)benzamide]: the IC50 against hACSL5 [1] and at hACSL5 [2] was less than 100 nM in each case.

On to `CC[C@@H](Oc1ccc(C(=O)NS(=O)(=O)c2ccc(OCCN3CCOCC3)cc2)c(F)c1F)c1ccc(OCC2CC2)cn1` [(R)-4-(1-(5-(cyclopropylmethoxy)pyridin-2-yl)propoxy)-2,3-difluoro-N-((4-(2-morpholinoethoxy)phenyl)sulfonyl)benzamide], for which the IC50 on hACSL5 [1] was greater than 500 nM; on hACSL5 [2] it was less than 100 nM.

As to `CC[C@@H](Oc1ccc(C(=O)NS(=O)(=O)c2ccc(OC3CCN(CC(C)(C)O)CC3)cc2)c(F)c1F)c1ccc(OCC2CC2)cn1` [(R)-4-(1-(5-(cyclopropylmethoxy)pyridin-2-yl)propoxy)-2,3-difluoro-N-((4-((1-(2-hydroxy-2-methylpropyl)piperidin-4-yl)oxy)phenyl)sulfonyl)benzamide], the IC50 on hACSL5 [1] was 100 to 500 nM; on hACSL5 [2], less than 100 nM.

Turning to `CC[C@@H](Oc1ccc(C(=O)NS(=O)(=O)N2CCC(OC3CCN(CC(C)(C)O)CC3)CC2)c(F)c1F)c1ccc(OCC2CC2)cn1` [(R)-4-(1-(5-(cyclopropylmethoxy)pyridin-2-yl)propoxy)-2,3-difluoro-N-((4-((1-(2-hydroxy-2-methylpropyl)piperidin-4-yl)oxy)piperidin-1-yl)sulfonyl)benzamide], the IC50 on hACSL5 [1] is 100 to 500 nM; on hACSL5 [2], less than 100 nM.
